Measurements from patent US7825256B2, “Inducible nitric oxide synthase dimerization inhibitors” (Kalypsys, Inc., priority 2004, dated 2010).

System: rat
Assay: Capsaicin test (topical capsaicin allodynia)
Assay type: in vivo
Excerpt: Subcutaneous injection of dilute capsaicin into the rat hind paw produces transient but pronounced hyperalgesia, allodynia and pain. This effect may be mitigated by pretreatment with a suitable agent, such as a topical anaesthetic or analgesic, and the extent of this mitigation quantified by evaluation of pain-related behaviors in response to noxious or innocuous stimuli as described above; rats pretreated with a known analgesic display fewer pain and allodynia related behaviors than controls. Compounds may be evaluated for their efficacy as potential analgesics in this manner as well.
Male Lewis rats weighing between 180 and 250 grams are used. The right hind paw is dipped into vehicle (100% acetone) or compound in vehicle for 30 seconds and then allowed to air-dry for 30 sec. To prevent the animal from licking the compound off the paw, the paw is wiped twice with a wet paper towel. At 15 min after application of vehicle or compound, 0.1 mg in 10 μL capsaicin is injected into right hind paw. Measurement of allodynia is performed 0.5 to 1 hour after capsaicin injection.
One procedure for quantifying allodynia measures the rat behavioral response to presentation of von Frey filaments of increasing diameter. Each rat is placed in a small, clear cage on an elevated screen. Beginning with 4.31, the von Frey hair is presented perpendicularly to the right mid-plantar hind paw with sufficient force to cause slight buckling, for 6-8 seconds. If presentation lifts the hind paw it is disregarded, as it changes the nature of the stimulus. A positive response is noted if the paw is sharply withdrawn upon onset or offset of stimulus. Ambulation is considered an ambiguous response and the presentation is repeated. Stimuli are presented in a consecutive fashion. A positive response would call for the presentation of the immediately weaker weight filament next; likewise, no response would call for the immediately stronger. Presentations continue until a series of six consecutive responses from the first change is logged. The next rat is then tested. This procedure is standard in the art for the measurement of allodynia, but any other method known in the art which provides adequate sensitivity and reproducibility may be substituted.

[1] = at 0.5 hr after capsaicin injection
[2] = at 1 hr after capsaicin injection

Row | SMILES | Topical Capsaicin Allodynia [1] | Topical Capsaicin Allodynia [2]
1 | CN(CCCNCc1ccc2c(c1)OCO2)c1nc(-n2ccnc2)ns1 [Example 2, N′-Benzo[1,3]dioxol-5-ylmethyl-N-(3-imidazol-1-yl-[1,2,4]thiadiazol-5-yl)-N-methyl-propane-1,3-diamine] | + at 0.5 hr ((+) = >15% inhibition) | + at 1 hr ((+) = >15% inhibition)
2 | Cc1cc(C2CCCN2C(=O)NCCc2ccc3c(c2)OCO3)nc(-n2ccnc2)n1 (stereo not drawn) [Example 4, 2-(2-Imidazol-1-yl-6-methyl-pyrimidin-4-yl)-pyrrolidine-1-carboxylic acid (2-benzo[1,3]dioxol-5-yl-ethyl)-amide] | − at 0.5 hr ((−) = <15% inhibition) | + at 1 hr ((+) = >15% inhibition)
3 | Cc1cc(C2CCCN2C(=O)CNCc2ccc3c(c2)OCO3)nc(-n2ccnc2)n1 (stereo not drawn) [Example 5] | + at 0.5 hr ((+) = >15% inhibition) | − at 1 hr ((−) = <15% inhibition)
